Assay results from PMC10285648, “iTAG an optimized IMiD-induced degron for targeted protein degradation in human and murine cells” (iScience, 2023).

Columns and labels:
[1] = test system: Flag-HA-DCD23-EGFP; assay: Degradation of Flag-HA-DCD23-EGFP in murine cells; assay type: cell-based, mouse; conditions: for DC50 / DCmax: 24h, flow cytometry
Method: (§1) Given the high degradation efficiency of DCD23 in human cells, we sought to test the applicability of this system in murine cells.
(§2) The protein lysates were probed for EGFP using western blotting. […] EGFP signal was then measured using flow cytometry. (3 independent experiments, normalized to the control and represented as mean ± SD). […] Data are plotted as Log2 fold change relative to DMSO versus Log10 of p value.
As an additional validation of iTAG (DCD23) induced degradation, we tested the same constructs in murine colorectal carcinoma cells (CT26) where we saw similar loss of EGFP with a panel of IMiD/CeLMODs (Figure S9B).

[2] = test system: cMYC-EGFP-DCD23; assay: Degradation of cMYC-EGFP-DCD23 in HMEC (flow cytometry, western blotting); assay type: cell-based, human
Source text: To systematically delineate the optimal DCD/degrader combination for targeted protein degradation, we undertook a matrix approach evaluating all 23 DCD tags against 6 small molecule degraders. […] To control for any potential off-target effects of the IMiD/CeLMOD agents that could indirectly affect the target of interest, we designed controls in which the specific DCD and the EGFP sequences were interspaced by a P2A ribosomal “skipping” sequence,[32] leading to separate translation of the DCD and the target protein (Figure 1A). These constructs were then inserted into a doxycycline-inducible lentiviral vector system and stably expressed in hTERT immortalized human mammary epithelial cells (HMEC), a suitable model to assess the functional consequences of cMYC degradation. cMYC was tagged at the C-terminus end for the initial screening experiments.
Figure 1 Design and experimental evaluation of the DCD tags (A) Representation of the experimental pipeline used to evaluate the different DCD constructs. […] Median EGFP intensity was measured in each condition using flow cytometry (3 independent experiments, normalized to the control and represented as mean ± SD). […] The protein lysates were probed for cMYC levels using western blotting. […] Target loss was evaluated either by measuring EGFP median intensity using flow cytometry or western blotting for cMYC protein (3 independent experiments, normalized to the control and represented as mean ± SD). […] Target loss was evaluated as in (D) (3 independent experiments, normalized to the control and represented as mean ± SD). […] Protein lysates were collected and probed for cMYC and p21 using western blotting. […] Protein lysates were collected and probed for cMYC and p21 using western blotting. […] These were left out as controls with no test substance.
Following degrader treatment cells were collected and DAPI was added to the cell suspension at 1 μg/mL to allow the exclusion of dead cells. EGFP signal was measured using BD LSR II flow cytometer (BD Biosciences). FlowJo 10 Software (FlowJo) was used for data processing.
Cells were lysed with SDS lysis buffer (2% SDS, 10% Glycerol, 50mM Tris pH 6.8) and boiled at 95°C for 30min. Protein concentration was measured using Pierce BCA Protein Assay Kit (ThermoFischer) following manufacturer’s recommendations. Samples were ran in NuPAGETM 10% Bis-Tris Midi electrophoresis gels (Invitrogen) using NuPAGETM MES SDS running buffer (ThermoFischer Scientific).
For western blotting membranes were blocked in a solution of 5% (w/v) bovine serum albumin (BSA; Sigma-Aldrich) dissolved in TBS-0.1% Tween 20 (Sigma-Aldrich) then incubated at 4°C overnight with the primary antibodies diluted in 5% (w/v) BSA/TBS-T. The membranes where then washed and incubated with anti-mouse and/or anti-rabbit secondary antibodies (LI-COR Biosciences) for 2h at RT diluted in 5% (w/v) BSA/TBS-T then washed and imaged using the LI-COR Odyssey (LI-COR Biosciences). Images were analyzed using Image Studio Lite software (LI-COR Biosciences).

[3] = Plasma CC220 level in tumor-bearing mice; assay type: in vivo; conditions: mouse, 30 mg/kg oral, 24h post administration
[4] = test system: Flag-HA-DCD19-EGFP; assay: Degradation of Flag-HA-DCD19-EGFP in murine cells; assay type: cell-based, mouse; conditions: 2208L and PyMT, 24 h, western blotting
Method: as §1, §2

[5] = test system: RBM39, CDK9, MAPK9, HPRT1, SMS, MAVS (tagged); assay: Western blotting, iTAG versus dTAG at 24h on six targets in SUM159; assay type: cell-based, human; conditions: SUM159, 24h
Method: Subsequently, we evaluated the extent of degradation induced by the two tagging systems. For this purpose, we tested targets present in different subcellular localizations at a longer time point (24h): RBM39 (-nuclear 59.3kDa-), CDK9 (Cyclin-dependent kinase 9 -nuclear 42.7kDa-), MAPK9 (Mitogen-activated protein kinase 9 -nuclear 48.1 kDa-), HPRT1 (Hypoxanthine Phosphoribosyltransferase 1-cytoplasmic 24.5kDa-), SMS (Spermine synthase –cytoplasmic 41.2kDa-), and MAVS (Mitochondrial antiviral-signaling protein -mitochondrial 56.5kDa-) (Figure S7).

Which “time of onset of loss of EGFP signal” value ([1]; 2208L and PyMT) does the source give for `O=C1CC[C@H](N2Cc3c(OCc4ccc(CN5CCOCC5)cc4)cccc3C2=O)C(=O)N1` [CC220, Iberdomide] here?
Its value is at most 1 h.

And the “degradation of DCD23 tagged EGFP” value ([1]; 2208L and PyMT, 24 h, western blotting)?
Its value is “efficiently degraded”.

What about the DC50 ([1]; 2208L) of the same molecule?
The DC50 was 2.7 nM.

And the DCmax ([1]; 2208L)?
The DCmax was 88%.

What about the DC50 ([1]; PyMT) of the same molecule?
Its DC50 is 4.3 nM.

What about the DCmax ([1]; PyMT) of the same molecule?
The DCmax was 81%.

And the “c-MYC levels after washout” value ([2]; 10μM 4h, then drug washed out, 24h or 48h)?
The value was “restored back to pre-treatment levels”.

What about the “time to significant degradation of c-MYC tagged with DCD23” value ([2]; HMEC, 10uM) of the same molecule?
Its value is at most 15 min.

And the “p21 levels after degradation of DCD23-tagged cMYC” value ([2]; HMEC, 10μM, 16h, western blotting)?
Its value is “restoration of p21 levels”.

And the DC50 ([2]; HMEC, 4h)?
Its DC50 is 2 nM.

And the “DCmax at 4h” value ([2]; HMEC, 4h)?
The value was 75%.

And the residual plasma level [3]?
Its residual plasma level is “nanomolar range”.

What about the “degradation of DCD19 tagged EGFP” value [4] of the same molecule?
Its value is “not degraded”.

And the “degradation compared with dTAG” value [5]?
The value was “more effective degradation of the targets even at low nanomolar CC220 concentrations”.
